Drawing on patent US10730866B2, “Indole derivatives and use thereof” (Purdue Pharma L.P., priority 2014, dated 2020), this text covers IC50 and Ki for 16 compounds.

A word on the IC50: it is the concentration needed to halve the response being measured.

The target in experiment [1] is human Nav1.7 (Homo sapiens (Human), UniProt Q15858). As to the kind of experiment: FLIPR or FLIPR TETRA sodium dye assay for sodium channel blocking activity. It is filed as cell-based. The note with it: recombinant HEK293 cells expressing human Nav1.7. The method, then: In vitro assays were performed in a recombinant cell line expressing cDNA encoding the alpha subunit (Nav1.7, SCN9a, PN1, NE) of human Nav1.7 (Accession No. NM_002977). The cell line was provided by investigators at Yale University (Cummins et al, J. Neurosci. 18(23): 9607-9619 (1998)). For dominant selection of the Nav1.7-expressing clones, the expression plasmid co-expressed the neomycin resistance gene. The cell line was constructed in the human embryonic kidney cell line, HEK293, under the influence of the CMV […] promoter, and stable clones were selected using limiting dilution cloning and antibiotic selection using the neomycin analogue, G418. Recombinant beta and gamma subunits were not introduced into this cell line. Additional cell lines expressing recombinant Nav1.7 cloned from other species can also be used, alone or in combination with various beta subunits, gamma subunits or chaperones.
Chain of human Nav1.7 (Q15858 other isoform, or with tags, fused parts or gaps): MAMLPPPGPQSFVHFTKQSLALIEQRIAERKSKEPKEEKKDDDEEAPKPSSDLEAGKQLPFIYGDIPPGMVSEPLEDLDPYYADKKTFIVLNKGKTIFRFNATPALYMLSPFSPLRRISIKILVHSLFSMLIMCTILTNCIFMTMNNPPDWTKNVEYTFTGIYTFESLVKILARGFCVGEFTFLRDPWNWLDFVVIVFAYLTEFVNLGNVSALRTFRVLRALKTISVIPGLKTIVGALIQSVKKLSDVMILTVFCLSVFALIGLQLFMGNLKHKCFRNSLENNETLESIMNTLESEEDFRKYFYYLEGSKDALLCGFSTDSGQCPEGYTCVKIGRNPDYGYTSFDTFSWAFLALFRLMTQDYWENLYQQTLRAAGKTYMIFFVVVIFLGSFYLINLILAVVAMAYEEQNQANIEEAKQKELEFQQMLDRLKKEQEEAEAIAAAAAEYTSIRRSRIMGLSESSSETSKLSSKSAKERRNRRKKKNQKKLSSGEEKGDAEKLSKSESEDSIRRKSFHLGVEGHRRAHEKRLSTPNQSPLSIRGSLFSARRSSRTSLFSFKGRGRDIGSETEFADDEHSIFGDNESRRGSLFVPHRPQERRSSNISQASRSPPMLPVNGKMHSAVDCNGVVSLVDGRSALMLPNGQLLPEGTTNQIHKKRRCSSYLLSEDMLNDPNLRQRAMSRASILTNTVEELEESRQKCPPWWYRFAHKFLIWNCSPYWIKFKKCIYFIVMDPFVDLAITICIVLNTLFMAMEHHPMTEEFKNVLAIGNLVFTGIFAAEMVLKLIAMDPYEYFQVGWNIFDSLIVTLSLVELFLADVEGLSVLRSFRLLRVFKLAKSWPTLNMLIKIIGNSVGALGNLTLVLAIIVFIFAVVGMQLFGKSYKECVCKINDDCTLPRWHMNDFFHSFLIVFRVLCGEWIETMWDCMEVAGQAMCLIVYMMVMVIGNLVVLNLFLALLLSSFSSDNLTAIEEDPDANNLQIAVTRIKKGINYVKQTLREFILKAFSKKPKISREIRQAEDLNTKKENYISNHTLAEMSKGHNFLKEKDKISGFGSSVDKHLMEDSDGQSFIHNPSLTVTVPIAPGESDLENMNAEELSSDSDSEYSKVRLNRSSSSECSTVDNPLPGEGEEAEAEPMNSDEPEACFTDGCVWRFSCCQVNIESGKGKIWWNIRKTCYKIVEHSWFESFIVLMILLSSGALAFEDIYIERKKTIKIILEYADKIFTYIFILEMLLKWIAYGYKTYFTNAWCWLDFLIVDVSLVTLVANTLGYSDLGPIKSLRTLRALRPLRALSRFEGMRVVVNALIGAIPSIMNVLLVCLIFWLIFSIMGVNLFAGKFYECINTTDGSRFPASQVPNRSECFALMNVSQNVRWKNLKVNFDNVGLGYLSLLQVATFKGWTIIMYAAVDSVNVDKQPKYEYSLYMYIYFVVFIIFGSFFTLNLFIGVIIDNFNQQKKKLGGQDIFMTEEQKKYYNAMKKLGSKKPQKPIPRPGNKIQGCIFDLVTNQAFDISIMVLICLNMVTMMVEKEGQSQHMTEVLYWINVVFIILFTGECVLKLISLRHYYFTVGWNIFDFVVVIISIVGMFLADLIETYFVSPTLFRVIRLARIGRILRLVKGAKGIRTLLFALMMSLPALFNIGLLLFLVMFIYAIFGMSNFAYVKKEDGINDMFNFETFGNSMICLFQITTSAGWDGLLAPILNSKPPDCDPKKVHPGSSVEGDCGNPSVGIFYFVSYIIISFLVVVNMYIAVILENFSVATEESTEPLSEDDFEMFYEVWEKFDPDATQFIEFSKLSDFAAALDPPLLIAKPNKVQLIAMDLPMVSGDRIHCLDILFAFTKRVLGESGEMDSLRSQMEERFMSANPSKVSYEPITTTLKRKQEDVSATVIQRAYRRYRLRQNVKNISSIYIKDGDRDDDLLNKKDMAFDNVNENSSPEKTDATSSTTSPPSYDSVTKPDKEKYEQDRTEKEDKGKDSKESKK
Unless otherwise noted, cell culture reagents were purchased from Mediatech of Herndon, Va. The recombinant Nav1.7/HEK293 cells were routinely cultured in growth medium consisting of Dulbecco's […] essential medium containing 10% fetal bovine serum (FBS, Hyclone, Thermo Fisher Scientific, Logan, Utah), 100 U/mL penicillin, 100 μg/mL streptomycin, 2-4 mM L-glutamine, and […] G418. For natural, non-recombinant cell lines, the selective antibiotic was omitted, and additional media formulations can be applied as needed.
The final buffer consisted of 20 mM Hepes, pH 7.3, 1.261 mM CaCl2, 0.493 mM MgCl2, 0.407 mM Mg(SO)4, 5.33 mM KCl, 0.441 mM KH2PO4, 137 mM NaCl, 0.336 mM Na2HPO4 and […] D-glucose (Hanks et al., Proc. Soc. Exp. Biol. Med. 71:196 (1949)), and the simple formulation was typically the basic buffer throughout the assay (i.e., all wash and addition steps).
The fluorescence indicator used in the primary fluorescence assay was the cell permeant version of CoroNa™ Green (Invitrogen, Molecular Probes, Eugene, Oreg.), a dye that emits light in the fluorescence range (Harootunian et al., J. Biol. Chem. 264(32):19458-19467 (1989)). The intensity of this emission, but not the wavelength range, is increased when the dye is exposed to Na^+ ions, which it can bind with partial selectivity. Cells expressing Nav1.7 or other sodium channels were loaded with the CoroNa™ Green dye immediately in advance of the fluorescence assay, and then, after agonist stimulation, the mobilization of Na^+ ions was detected as the Na^+ ions flowed from the extracellular fluid into the cytoplasm through the activated sodium channel pores. The dye was stored in the dark as a lyophilized powder, and then an aliquot was dissolved immediately before the cell loading procedure, according to the instructions of the manufacturer, to a stock concentration of 10 mM in DMSO. It was then diluted in the assay buffer to a 4× concentrated working solution, so that the final concentration of dye in the cell loading buffer was 5 μM.
In the fluorescence assays, two agonists were used in combination, namely 1) veratridine; and 2) the venom from the yellow scorpion, Leiurus quinquestriatus hebraeus. Veratridine is an alkaloid small molecule that facilitates the capture of channel openings by inhibiting inactivation, and the scorpion venom is a natural preparation that includes peptide toxins selective for different subsets of voltage-gated sodium channels. These scorpion toxins inhibit the fast inactivation of their cognate target channels. Stock solutions of the agonists were prepared to 40 mM in DMSO (veratridine) and 1 mg/mL in dH2O (scorpion venom), and then diluted to make a 4× or 2× stock (depending on the particular assay) in assay buffer, the final concentration being 100 μM (veratridine) and 10 μg/mL (scorpion venom). Both of the agonists were purchased from Sigma Aldrich, St. Louis, Mo.
Test compounds were dissolved in DMSO to yield 10 mM stock solutions. […]

For experiment [2], the target named is hNav1.7 (Homo sapiens (Human), UniProt Q15858). As to the kind of experiment: Electrophysiology (EP) assay, whole-cell patch clamp. Type of experiment: cell-based. The conditions noted are these: hNav1.7 expressing HEK-293 cells; affinity for inactivated state; read-out: Nav1.7 Activity (μM) EP assay Ki. The method, then:
The hNav1.7 expressing HEK-293 cells are plated on 35 mm culture dishes pre-coated with poly-D-lysine in standard DMEM culture media (Mediatech, Inc., Herndon, Va.) and incubated in a 5% CO2 incubator at 37° C. Cultured cells are used approximately 12-48 hours after plating.
The hNav1.7 expressing HEK-293 cells are plated on tissue culture flasks in standard DMEM culture media (Mediatech, Inc.) and incubated in a 5% CO2 incubator at 37° C. Cultured cells are used approximately 12-48 hours after plating.
On the day of experimentation, the 35 mm dish is placed on the stage of an inverted microscope equipped with a perfusion system that continuously perfuses the culture dish with fresh recording media. A gravity driven superfusion system is used to apply test solutions directly to the cell under evaluation. This “shooter” system consists of an array of glass pipettes connected to a motorized horizontal translator. The outlet of the shooter is positioned approximately 100 μm from the cell of interest.
Whole cell currents are recorded using the whole-cell patch clamp configuration using an Axopatch 200B amplifier (Axon Instruments, Foster City Calif.), 1322A A/D converter (Axon Instruments) and pClamp software (v. 8; Axon Instruments) and stored on a personal computer. Gigaseals are formed and the whole-cell configuration is established in voltage clamp mode, and membrane currents generated by hNav1.7 channels are recorded. Borosilicate glass pipettes with resistance values between 1.5 and 2.0 MΩ when filled with pipette solution are used and series resistance (<5 MΩ) is compensated by 75-80%. Signals are sampled at 50 kHz and low pass filtered at 3 kHz.
Whole cell currents are recorded using the whole-cell patch clamp configuration using an Patchliner (Nanion Technologies, Munich Germany), EPC 10 quadro amplifiers (HEKA, Bellmore, N.Y.) and PatchControl HT 10905 (Nanion Technologies) and PatchMaster v2x73 software (HEKA) and stored on a personal computer. Gigaseals are formed and the whole-cell configuration is established in voltage clamp mode, and membrane currents generated by hNav1.7 are recorded. NPC-16 chips have resistance values between 1.0 and 2.0 MΩ when filled with pipette solution and series resistance (<5 MΩ). Signals are sampled at 25 kHz and low pass filtered at 3 kHz.
After establishing the whole-cell configuration in voltage clamp mode, voltage protocols are run to establish the 1) test potential (Vmax), 2) holding potential (Vh), and 3) the conditioning potential for each cell.
After establishing the whole-cell configuration in voltage clamp mode, a standard I-V protocol is run to determine the potential at which the maximal current (Imax) is elicited. This potential is the test potential (Vt). To determine a conditioning potential at which 100% of channels are in the inactivated state, a standard steady-state inactivation (SSIN) protocol is run using a series of fifteen 100 ms-long depolarizing prepulses, incrementing in 10 mV steps, immediately followed by a 5 ms testing pulse to Vmax. This protocol also permits determination of the holding potential at which all channels are in the resting state.
For compounds causing significant retardation of recovery from inactivation, an estimate of the affinity for the inactivated state of the channel (Ki) is generated using the following protocol. From the negative, no residual inactivation, holding potential, the cell is depolarized to the conditioning voltage for 2-5 seconds, returned to the negative holding potential for 10-20 ms to relieve fast inactivation and then depolarized to the test potential for ˜15 ms. This voltage protocol is repeated every 10-15 seconds, first to establish a baseline in the absence of the test compound, then in the presence of the test compound.
After a stable baseline is established, the test compound is applied and block of the current elicited by the test pulse assessed. […]
In general terms: The patch-clamp technique gives a direct electrical read-out from membranes.

Structures are written as SMILES.

Chain of hNav1.7 (Q15858 other isoform, or with tags, fused parts or gaps): as above

For `OC[C@@H](O)c1cccc(-c2ccc3c(cnn3Cc3ccc(C(F)(F)F)cc3)c2)n1` [Compound 107, (S)-1-(6-(1-(4-(trifluoromethyl)benzyl)-1H-indazol-5-yl)pyridin-2-yl)ethane-1,2-diol], the IC50 in experiment [1] stood at 1.09 ± 0.077 µM. The Ki in experiment [2] came out at 0.534 ± 0.032 µM. In the same order, the values of `NC(=O)c1cc(-c2ccc3c(ccn3Cc3ccc(C(F)(F)F)cc3)c2)cc([C@H](O)CO)n1` [Compound 123, (S)-6-(1,2-dihydroxyethyl)-4-(1-(4-(trifluoromethyl)benzyl)-1H-indol-5-yl)picolinamide] are 1.52 ± 0.152 µM and 1.02 ± 0.368 µM.

In the case of `NC(=O)c1cc([C@@H](O)CO)cc(-c2ccc3c(ccn3Cc3ccc(C(F)(F)F)cc3)c2)n1` [Compound 120, (R)-4-(1,2-dihydroxyethyl)-6-(1-(4-(trifluoromethyl)benzyl)-1H-indol-5-yl)picolinamide], the IC50 in experiment [1] came out at 1.91 ± 0.458 µM. The Ki in experiment [2] was found to be 2.03 ± 0.608 µM. `CC(C)Cn1ccc2cc(-c3cccc(S(=O)(=O)Nc4ncns4)n3)ccc21` [Compound 41, 6-(1-isobutyl-1H-indol-5-yl)-N-(1,2,4-thiadiazol-5-yl)pyridine-2-sulfonamide]: the IC50 in experiment [1] amounted to 0.514 ± 0.054 µM. Also, the Ki in experiment [2] worked out at 0.322 ± 0.113 µM. The corresponding values for `NC(=O)c1cccc(-c2ccc3c(cnn3Cc3ccc(C(F)(F)F)cc3)c2)n1` [Compound 105, 6-(1-(4-(trifluoromethyl)benzyl)-1H-indazol-5-yl)picolinamide] are 0.897 ± 0.114 µM and 0.7 ± 0.049 µM. In the same order, the values of `CC(C)Cn1ccc2cc(-c3cccc([C@H](O)[C@@H](O)C(N)=O)n3)ccc21` [Compound 150, (2R,3S)-2,3-dihydroxy-3-(6-(1-isobutyl-1H-indol-5-yl)pyridin-2-yl)propanamide] are 1.38 ± 0.146 µM and 0.678 ± 0.172 µM. The corresponding values for `O=C(Nc1ccc(C(F)(F)F)cc1)c1cc(N[C@H]2CCNC2=O)nc(-c2ccc3[nH]ccc3c2)n1` [Compound 78, (S)-2-(1H-indol-5-yl)-6-((2-oxopyrrolidin-3-yl)amino)-N-(4-(trifluoromethyl)phenyl)pyrimidine-4-carboxamide] are 1.83 ± 0.459 µM and 1.28 ± 0.48 µM.

On to `CC(C)Cn1ncc2cc(-c3cccc([C@H](O)[C@@H](O)C(N)=O)n3)ccc21` [Compound 155, (2R,3S)-2,3-dihydroxy-3-(6-(1-isobutyl-1H-indazol-5-yl)pyridin-2-yl)propanamide], for which the IC50 in experiment [1] is more than 20 µM. For the same compound, the Ki in experiment [2] turned out to be 10.6 ± 3.9 µM. In the same order, the values of `NC(=O)c1cc(N[C@H]2CCNC2=O)nc(-c2ccc3ncn(-c4ccc(C(F)(F)F)cc4)c3c2)n1` [Compound 44, (S)-6-((2-oxopyrrolidin-3-yl)amino)-2-(1-(4-(trifluoromethyl)phenyl)-1H-benzo[d]imidazol-6-yl)pyrimidine-4-carboxamide] are 1.72 ± 0.156 µM and 1.54 ± 0.446 µM.

Consider `OC[C@@H](O)c1cccc(-c2cnc3c(ccn3Cc3ccc(C(F)(F)F)cc3)c2)n1` [Compound 106, (S)-1-(6-(1-(4-(trifluoromethyl)benzyl)-1H-pyrrolo[2,3-b]pyridin-5-yl)pyridin-2-yl)ethane-1,2-diol], for which the IC50 in experiment [1] is 1.33 ± 0.164 µM. In addition, the Ki in experiment [2] stood at 0.286 ± 0.027 µM.

As to `NC(=O)[C@H](O)[C@@H](O)c1cccc(-c2ccc3c(ccn3CC3CC3)c2)n1` [Compound 154, (2R,3S)-3-(6-(1-(cyclopropylmethyl)-1H-indol-5-yl)pyridin-2-yl)-2,3-dihydroxypropanamide], in experiment [1], the IC50 is 10 to 20 µM. For the same compound, in experiment [2], the Ki is 27.2 ± 8.2 µM. Take `NC(=O)c1cccc(-c2ccc3c(c2)c(CN[C@H]2CCNC2=O)cn3Cc2ccc(C(F)(F)F)cc2)n1` [Compound 144, (S)-6-(3-(((2-oxopyrrolidin-3-yl)amino)methyl)-1-(4-(trifluoromethyl)benzyl)-1H-indol-5-yl)picolinamide]: the IC50 in experiment [1] was 2.54 ± 0.181 µM. Same read-out and setting: the result for `Nc1cc(C(=O)Nc2ccc(C(F)(F)F)cc2)nc(-c2ccc3occc3c2)n1` [Compound 138, 6-amino-2-(benzofuran-5-yl)-N-(4-(trifluoromethyl)phenyl)pyrimidine-4-carboxamide] reads 3.66 ± 2.4 µM. The same measure, in the same setting: the result for `NC(=O)c1cccc(-c2ccc3c(ccn3Cc3ccncc3)c2)n1` [Compound 64, 6-(1-(pyridin-4-ylmethyl)-1H-indol-5-yl)picolinamide] reads more than 20 µM; that for `O=C(NC1CCCC1)c1cccc(-c2ccc3[nH]ccc3c2)n1` [Compound 85, N-cyclopentyl-6-(1H-indol-5-yl)picolinamide], 1.21 ± 0.242 µM; that for `N#Cc1cc([C@@H](O)CO)cc(-c2ccc3c(ccn3Cc3ccc(C(F)(F)F)cc3)c2)n1` [Compound 119, (R)-4-(1,2-dihydroxyethyl)-6-(1-(4-(trifluoromethyl)benzyl)-1H-indol-5-yl)picolinonitrile], 5.09 ± 0.356 µM.
